Reference: patent US8012959B2, “Diaminopyrimidinecarboxamide derivative” (Astellas Pharma Inc., priority 2002, dated 2011)

Key:
STAT 6 = molecular target: T1, STAT 6 (Mus musculus, UniProt P52633); test: STAT 6-dependent reporter activity (IL-4-stimulated CI/FW4 luciferase reporter cell); format: cell-based, human
T1 construct: An STAT 6 reporter cell CI/FW4 was constructed by the above operation; endogenous in cells; host or cells: CI/FW4 (FW4 cell stably carrying the pGL2-CI/bs luciferase reporter)
T1 sequence (P52633 1-837): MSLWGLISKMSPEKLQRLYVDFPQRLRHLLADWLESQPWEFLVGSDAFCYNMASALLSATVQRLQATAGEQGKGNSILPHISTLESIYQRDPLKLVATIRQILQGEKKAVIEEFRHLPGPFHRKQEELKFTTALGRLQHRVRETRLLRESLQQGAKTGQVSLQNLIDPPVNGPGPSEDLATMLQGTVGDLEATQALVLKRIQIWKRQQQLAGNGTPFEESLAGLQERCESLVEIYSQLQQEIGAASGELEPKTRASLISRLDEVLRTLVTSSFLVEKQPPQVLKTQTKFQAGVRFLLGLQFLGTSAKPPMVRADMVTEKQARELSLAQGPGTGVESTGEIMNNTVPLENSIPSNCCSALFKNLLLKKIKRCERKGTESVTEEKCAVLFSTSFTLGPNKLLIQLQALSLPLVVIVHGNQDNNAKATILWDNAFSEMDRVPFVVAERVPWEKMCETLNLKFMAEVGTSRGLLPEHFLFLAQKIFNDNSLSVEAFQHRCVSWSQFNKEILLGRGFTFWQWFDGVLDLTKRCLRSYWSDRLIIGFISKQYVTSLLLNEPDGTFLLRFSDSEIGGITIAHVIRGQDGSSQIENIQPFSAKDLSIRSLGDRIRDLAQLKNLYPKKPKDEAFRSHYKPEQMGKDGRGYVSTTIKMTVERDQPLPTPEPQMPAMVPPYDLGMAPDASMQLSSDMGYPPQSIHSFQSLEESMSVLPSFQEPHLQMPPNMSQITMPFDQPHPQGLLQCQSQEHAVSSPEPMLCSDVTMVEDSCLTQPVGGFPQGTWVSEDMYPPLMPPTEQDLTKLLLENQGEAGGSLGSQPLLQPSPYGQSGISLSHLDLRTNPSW
Description: Measurement of STAT 6-Dependent Reporter Activity 1) Construction of STAT 6 Reactive Reporter Plasmid A STAT 6 reporter plasmid pGL2-CI was prepared by the following method. […] Also, […] sequence DNA molecules (SEQ ID NOs:3 and 4) contained in the adenovirus major late promoter were annealed and inserted into BglII and HindIII sites of the same vector. Thereafter, pGL2-CI/bs was constructed by inserting the blasticidin resistance gene of pUCSV-BD (Funakoshi) into BamHI site of the constructed pGL2-CI. 2) Construction of STAT 6 Reporter Cell Gene transfer of […] into a human IL-4 reactive cell FW4 cell (Mol. Cell. Biol., 14: 5433-5440) was carried out by the electroporation method (320 V, 960 μF/0.4 cm cuvette (Nippon Bio-Rad Laboratories)), and 6 μg/ml of blasticidin (Funakoshi) was added 40 hours thereafter to select a resistant cell. Confirmation of constant transfer of the reporter plasmid was carried out by detecting luciferase induce by IL-4 stimulation. An STAT 6 reporter cell CI/FW4 was constructed by the above operation. 3) STAT Reporter Assay Using CI/FW4 Cell Stimulation of the CI/FW4 cell (1×10^4 cells/0.1 ml) with 10 ng/ml of human IL-4 (Genzyme Techne) was carried out using a white 96 well plate (Nunc). In the case of the evaluation of compounds, compound dilutions were added to the wells before inoculating the cells into the 96 well plate. […] Thereafter, 50 μl of a luciferase substrate solution (10 mM Tris-HCl pH 7.8, 5 mM luciferin, 2 mM coenzyme A, 2 mM ATP, 0.5 mM MgCl2 and 2 mM Mg(OH)2) was added, followed by stirring for 1 minute. Then, the luciferase activity was measured using ML3000 luminometer (Dynatech Laboratories, Inc). Inhibitory activities of tested compounds were evaluated in which the luminescence intensity (relative light unit: […] The results are shown in the following Table 26.

T cells = test: Th2 differentiation (IL-4 production by differentiated mouse spleen T cells, ELISA); format: cell-based; settings: inhibition of Th2 differentiation (IL-4 production, ELISA), C57BL/6 mouse spleen T cells
Description: Measurement of Th2 Differentiation
T cells were prepared by removing nylon wool (Wako Pure Chemical Industries)-adhering cells from C57BL/6 mouse (Charles River Japan) spleen cells. Using a 96 well plate to which an anti-CD3ε antibody (10 μg/ml) (Sederlane) had been immobilized in advance, T cells (2×10^5 cells/0.2 ml) were inoculated under stimulation with anti-CD28 antibody (1 μg/ml) (Pharmingen), IL-2 (10 ng/ml) (Peprotech) and IL-4 (10 ng/ml) (Peprotech). After 2 days of the culturing, total volume of the cell suspension was diluted to 2 ml with a medium containing IL-2 (10 ng/ml) and IL-4 (10 ng/ml). The differentiation was induced by further carrying out the culturing for 3 days. By counting the cell density, the cells after differentiation were adjusted to 1×10^6 cells/ml and inoculated into a 96 well plate immobilized with the anti-CD3 ε antibody, in order to induce IL-4 production. The supernatant after 24 hours of the stimulation was recovered, and the IL-4 production was determined by an ELISA method. The antibody used in the ELISA was purchased from Pharmingen. Also, an HRPO-labeled streptoavidin (Amersham Pharmacia) was used in the detection of biotinylated antibody, and a peroxidase color developing reagent (Sumitomo Bakelite) was used in the HRPO color development. In the case of the evaluation of compounds, compound dilutions were added to the wells before the addition of T cells, at the time of the dilution 2 days later, compounds equivalent to the initial concentration were added. Also, regarding the dilution of compounds, dilution was carried out using 10% FBS-containing RPMI 1640 such that the final concentration of DMSO in which each compound was dissolved became 0.1% or less. Inhibitory activity of each tested compound was evaluated in which the IL-4 production when DMSO was added instead of the compound was regarded as 100%, and the IL-4 production when anti-CD28 antibody and IL-4 were not added as 0%.

[1] = inhibition ratio at 0.1 μM compound, IL-4-stimulated CI/FW4 cell, luciferase
[2] = inhibition ratio at 1 μM compound, IL-4-stimulated CI/FW4 cell, luciferase

SMILES | inhibition at 0.1 µM (STAT 6; [1]) | inhibition at 1 µM (STAT 6; [2]) | Inh (%) (T cells) | Inh (%) 0.1 μM (STAT 6; [1]) | Inh (%) 1 μM (STAT 6; [2]) | inhibition of STAT 6-dependent reporter activity (activity similar to the compounds of Table 26) (STAT 6; CI/FW4 cell, 10 ng/ml human IL-4, luciferase)
NC(=O)c1cnc(Nc2ccc(N3CCOCC3)cc2)nc1NCc1ccccc1 [Example 3, 4-benzylamino-2-{[4-(morpholin-4-yl)phenyl]amino}pyrimidine-5-carboxamide] | 100% | 100% | 98% | – | – | –
COc1ccccc1CNc1nc(Nc2ccc(N3CCOCC3)cc2)ncc1C(N)=O [Example 35] | – | – | 94% | 95% | 100% | –
Cc1cccc(Nc2nc(NCCc3ccc(O)c(Cl)c3)ncc2C(N)=O)c1 [Production Example 99] | – | – | 85% | – | – | good activity
